ChEMBL document CHEMBL4507310, “Data for DCP probe A-1211212” (2021)
Activity calls are given as the source filed them. The calls are words filed in the database; no cut-off is given here.

Assays:
[1] = target: Apoptosis regulator Bcl-2 (Homo sapiens, UniProt P10415); assay: Time-resolved fluorescence energy transfer (TR-FRET) with BCL2
[2] = target: Prostaglandin G/H synthase 2 (Homo sapiens) (UniProt P35354); assay: COX2(h) Eurofins-Cerep enzyme and uptake assay; conditions: Compound concentration 10.0 uM
[3] = target: Adenosine receptor A1 (Homo sapiens) (UniProt P30542); assay: A1 (h) Eurofins-Cerep binding assay; set-up: ligand concentration 1 nM; conditions: filed as antagonist, Compound concentration 10.0 uM
[4] = target: Glutamate NMDA receptor (Rattus norvegicus) (UniProt P35439+Q00959+Q00960+Q00961+Q62645+Q8VHN2+Q9R1M7); assay: NMDA Eurofins-Cerep binding assay; assay type: protein-complex assay; set-up: ligand concentration 5 nM; conditions: filed as antagonist, Compound concentration 10.0 uM
[5] = target: T1, Muscarinic acetylcholine receptor M1 (Homo sapiens) (UniProt P11229); assay: M1 (h) Eurofins-Cerep binding assay; set-up: ligand concentration 2 nM; conditions: filed as antagonist, Compound concentration 10.0 uM
T1 sequence (whole entry): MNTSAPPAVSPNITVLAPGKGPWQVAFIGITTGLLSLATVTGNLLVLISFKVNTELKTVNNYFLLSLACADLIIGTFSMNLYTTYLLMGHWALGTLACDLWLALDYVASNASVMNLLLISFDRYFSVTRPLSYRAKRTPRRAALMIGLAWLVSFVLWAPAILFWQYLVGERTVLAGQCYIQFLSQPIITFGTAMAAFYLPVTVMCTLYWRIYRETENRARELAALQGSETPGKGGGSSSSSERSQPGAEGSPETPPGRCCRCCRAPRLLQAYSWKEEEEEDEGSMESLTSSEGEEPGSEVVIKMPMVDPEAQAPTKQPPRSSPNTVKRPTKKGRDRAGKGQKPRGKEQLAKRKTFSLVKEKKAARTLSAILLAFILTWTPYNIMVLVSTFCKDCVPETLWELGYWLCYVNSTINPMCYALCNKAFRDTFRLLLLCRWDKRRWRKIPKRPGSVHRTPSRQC

[6] = target: Mu-type opioid receptor (Homo sapiens) (UniProt P35372); assay: mu (MOP) (h) Eurofins-Cerep binding assay; set-up: ligand concentration 0.5 nM; conditions: filed as agonist, Compound concentration 10.0 uM
[7] = target: Prostaglandin E2 receptor EP2 subtype (Homo sapiens) (UniProt P43116); assay: EP2 (h) Eurofins-Cerep binding assay; set-up: ligand concentration 3 nM; conditions: filed as agonist, Compound concentration 10.0 uM
Prostaglandin E2 receptor EP2 subtype (Homo sapiens), sequence (P43116 whole entry): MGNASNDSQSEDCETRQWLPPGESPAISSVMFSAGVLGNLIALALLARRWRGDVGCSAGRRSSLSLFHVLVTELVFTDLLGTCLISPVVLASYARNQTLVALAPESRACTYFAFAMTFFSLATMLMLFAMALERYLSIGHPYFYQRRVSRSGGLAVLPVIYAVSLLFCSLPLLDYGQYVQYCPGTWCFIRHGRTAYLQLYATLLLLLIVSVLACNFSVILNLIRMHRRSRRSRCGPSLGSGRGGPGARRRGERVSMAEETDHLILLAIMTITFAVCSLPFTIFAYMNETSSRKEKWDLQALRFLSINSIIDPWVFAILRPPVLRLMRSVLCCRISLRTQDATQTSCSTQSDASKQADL

[8] = tested on: Tyrosine-protein kinase ABL1 (Homo sapiens), P00519 [F317I]; conditions: Compound concentration 1000.0 nM
[9] = target: Tyrosine-protein kinase ABL1 (Homo sapiens) (UniProt P00519); conditions: Compound concentration 1000.0 nM
[10] = target: Activin receptor type-2A (Homo sapiens) (UniProt P27037); conditions: Compound concentration 1000.0 nM
[11] = target: RAC-alpha serine/threonine-protein kinase (Homo sapiens) (UniProt P31749); conditions: Compound concentration 1000.0 nM
[12] = target: Cyclin-dependent kinase 11B (Homo sapiens) (UniProt P21127); conditions: Compound concentration 1000.0 nM
[13] = target: Macrophage colony-stimulating factor 1 receptor (Homo sapiens) (UniProt P07333); conditions: Compound concentration 1000.0 nM
Macrophage colony-stimulating factor 1 receptor (Homo sapiens), sequence (P07333 whole entry): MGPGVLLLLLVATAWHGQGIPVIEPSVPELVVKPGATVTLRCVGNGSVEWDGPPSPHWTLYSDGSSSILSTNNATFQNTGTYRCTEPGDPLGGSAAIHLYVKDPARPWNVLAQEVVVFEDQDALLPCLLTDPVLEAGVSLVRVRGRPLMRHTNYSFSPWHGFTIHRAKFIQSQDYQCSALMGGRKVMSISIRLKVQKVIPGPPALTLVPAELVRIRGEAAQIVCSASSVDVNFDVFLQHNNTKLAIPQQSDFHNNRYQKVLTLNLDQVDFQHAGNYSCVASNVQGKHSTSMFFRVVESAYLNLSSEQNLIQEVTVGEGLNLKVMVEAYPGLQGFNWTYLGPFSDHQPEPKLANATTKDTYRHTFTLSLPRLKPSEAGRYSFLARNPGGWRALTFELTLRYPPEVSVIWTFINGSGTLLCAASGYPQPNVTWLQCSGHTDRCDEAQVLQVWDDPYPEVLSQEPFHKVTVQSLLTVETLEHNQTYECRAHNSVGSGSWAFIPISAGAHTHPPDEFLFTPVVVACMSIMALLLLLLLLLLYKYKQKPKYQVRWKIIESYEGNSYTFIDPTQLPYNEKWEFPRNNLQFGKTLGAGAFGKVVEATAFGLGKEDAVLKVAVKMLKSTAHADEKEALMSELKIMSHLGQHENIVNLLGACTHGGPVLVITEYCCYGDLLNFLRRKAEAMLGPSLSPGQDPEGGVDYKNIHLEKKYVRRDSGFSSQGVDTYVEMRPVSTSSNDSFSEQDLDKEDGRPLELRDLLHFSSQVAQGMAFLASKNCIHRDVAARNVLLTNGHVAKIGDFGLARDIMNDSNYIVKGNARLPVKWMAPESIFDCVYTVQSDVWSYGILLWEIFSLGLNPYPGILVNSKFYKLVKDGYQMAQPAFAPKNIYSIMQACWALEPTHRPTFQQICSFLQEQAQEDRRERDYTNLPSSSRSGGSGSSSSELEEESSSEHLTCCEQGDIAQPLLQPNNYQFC

[14] = target: Megakaryocyte-associated tyrosine-protein kinase (Homo sapiens) (UniProt P42679); conditions: Compound concentration 1000.0 nM
[15] = tested on: Epidermal growth factor receptor (Homo sapiens), P00533 [UNDEFINED MUTATION]; conditions: Compound concentration 1000.0 nM
Epidermal growth factor receptor (Homo sapiens), P00533 [UNDEFINED MUTATION], sequence (P00533 whole entry, looked up, change not shown): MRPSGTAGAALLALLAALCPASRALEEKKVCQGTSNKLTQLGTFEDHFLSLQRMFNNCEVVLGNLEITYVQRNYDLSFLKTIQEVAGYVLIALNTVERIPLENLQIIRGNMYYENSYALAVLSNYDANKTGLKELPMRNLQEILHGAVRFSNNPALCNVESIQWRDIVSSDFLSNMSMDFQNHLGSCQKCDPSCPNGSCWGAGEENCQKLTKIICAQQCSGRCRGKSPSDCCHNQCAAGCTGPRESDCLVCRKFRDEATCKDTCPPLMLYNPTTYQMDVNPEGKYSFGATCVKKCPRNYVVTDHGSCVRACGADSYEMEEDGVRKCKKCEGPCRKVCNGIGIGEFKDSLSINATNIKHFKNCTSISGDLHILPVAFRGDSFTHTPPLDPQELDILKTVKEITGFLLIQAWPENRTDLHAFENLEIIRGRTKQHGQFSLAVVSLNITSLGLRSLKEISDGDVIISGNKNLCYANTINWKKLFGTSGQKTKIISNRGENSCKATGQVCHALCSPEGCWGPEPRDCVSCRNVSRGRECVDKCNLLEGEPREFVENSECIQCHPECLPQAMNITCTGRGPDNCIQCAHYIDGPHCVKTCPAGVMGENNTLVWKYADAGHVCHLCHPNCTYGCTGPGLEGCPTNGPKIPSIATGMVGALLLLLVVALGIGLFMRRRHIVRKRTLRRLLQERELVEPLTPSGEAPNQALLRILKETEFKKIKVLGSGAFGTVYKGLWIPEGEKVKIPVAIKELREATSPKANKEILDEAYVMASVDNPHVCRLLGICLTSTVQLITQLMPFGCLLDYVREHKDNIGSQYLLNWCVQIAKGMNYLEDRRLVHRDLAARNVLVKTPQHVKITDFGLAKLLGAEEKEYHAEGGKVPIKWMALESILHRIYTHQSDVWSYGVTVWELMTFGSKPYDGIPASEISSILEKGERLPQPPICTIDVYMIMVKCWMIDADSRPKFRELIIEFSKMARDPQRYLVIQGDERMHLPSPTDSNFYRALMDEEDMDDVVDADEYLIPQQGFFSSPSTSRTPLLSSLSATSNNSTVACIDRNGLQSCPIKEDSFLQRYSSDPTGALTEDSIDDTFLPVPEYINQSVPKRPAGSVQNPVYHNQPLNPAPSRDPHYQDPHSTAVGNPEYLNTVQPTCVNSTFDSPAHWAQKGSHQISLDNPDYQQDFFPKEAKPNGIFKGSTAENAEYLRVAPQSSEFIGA

[16] = target: Eukaryotic translation initiation factor 2-alpha kinase 1 (Homo sapiens) (UniProt Q9BQI3); conditions: Compound concentration 1000.0 nM
[17] = tested on: Receptor-type tyrosine-protein kinase FLT3 (Homo sapiens), P36888 [D835H]; conditions: Compound concentration 1000.0 nM
[18] = tested on: Receptor-type tyrosine-protein kinase FLT3 (Homo sapiens), P36888 [UNDEFINED MUTATION]; conditions: Compound concentration 1000.0 nM
[19] = target: Mitogen-activated protein kinase 10 (Homo sapiens) (UniProt P53779); conditions: Compound concentration 1000.0 nM
[20] = target: Leucine-rich repeat serine/threonine-protein kinase 2 (Homo sapiens) (UniProt Q5S007); conditions: Compound concentration 1000.0 nM
[21] = target: Serine/threonine-protein kinase MRCK alpha (Homo sapiens) (UniProt Q5VT25); conditions: Compound concentration 1000.0 nM
[22] = target: Serine/threonine-protein kinase Nek3 (Homo sapiens) (UniProt P51956); conditions: Compound concentration 1000.0 nM
Serine/threonine-protein kinase Nek3 (Homo sapiens), sequence (P51956 whole entry): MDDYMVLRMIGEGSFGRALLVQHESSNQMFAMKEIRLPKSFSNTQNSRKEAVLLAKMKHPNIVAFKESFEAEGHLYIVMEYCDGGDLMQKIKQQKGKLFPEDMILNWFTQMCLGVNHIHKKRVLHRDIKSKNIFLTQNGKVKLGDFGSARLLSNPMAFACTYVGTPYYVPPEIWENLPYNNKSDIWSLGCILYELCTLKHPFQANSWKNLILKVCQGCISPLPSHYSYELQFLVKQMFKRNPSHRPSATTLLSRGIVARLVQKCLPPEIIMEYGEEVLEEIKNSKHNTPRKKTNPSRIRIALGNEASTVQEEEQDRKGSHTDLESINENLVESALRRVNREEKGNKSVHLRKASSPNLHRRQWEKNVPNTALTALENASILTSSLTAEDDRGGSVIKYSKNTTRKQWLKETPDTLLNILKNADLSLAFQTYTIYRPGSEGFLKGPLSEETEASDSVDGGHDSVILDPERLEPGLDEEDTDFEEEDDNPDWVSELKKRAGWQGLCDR

[23] = target: Cyclin-dependent kinase 16 (Homo sapiens) (UniProt Q00536); conditions: Compound concentration 1000.0 nM
[24] = target: Serine/threonine-protein kinase PknB (Mycobacterium tuberculosis) (UniProt P9WI81); conditions: Compound concentration 1000.0 nM
[25] = target: Serine/threonine-protein kinase PLK2 (Homo sapiens) (UniProt Q9NYY3); conditions: Compound concentration 1000.0 nM
Serine/threonine-protein kinase PLK2 (Homo sapiens), sequence (Q9NYY3 whole entry, looked up): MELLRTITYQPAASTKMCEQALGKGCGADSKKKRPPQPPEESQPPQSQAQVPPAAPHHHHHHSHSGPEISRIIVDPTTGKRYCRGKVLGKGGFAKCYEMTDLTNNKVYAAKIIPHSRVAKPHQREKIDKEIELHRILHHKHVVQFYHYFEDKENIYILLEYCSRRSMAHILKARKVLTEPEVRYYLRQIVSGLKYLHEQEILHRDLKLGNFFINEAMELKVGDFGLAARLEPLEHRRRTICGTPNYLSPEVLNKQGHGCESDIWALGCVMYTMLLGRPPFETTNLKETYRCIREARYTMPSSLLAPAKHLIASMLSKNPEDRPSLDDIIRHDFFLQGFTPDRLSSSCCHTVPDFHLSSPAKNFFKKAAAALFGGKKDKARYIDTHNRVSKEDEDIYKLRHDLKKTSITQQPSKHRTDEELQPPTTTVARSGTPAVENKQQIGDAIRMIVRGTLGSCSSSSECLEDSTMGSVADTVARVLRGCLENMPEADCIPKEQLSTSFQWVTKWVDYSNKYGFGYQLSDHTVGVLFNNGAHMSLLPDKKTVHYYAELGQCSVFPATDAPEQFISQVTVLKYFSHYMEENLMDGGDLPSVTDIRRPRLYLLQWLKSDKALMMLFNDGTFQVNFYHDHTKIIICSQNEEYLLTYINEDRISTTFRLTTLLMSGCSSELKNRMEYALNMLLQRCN

[26] = target: cGMP-dependent protein kinase 2 (Homo sapiens) (UniProt Q13237); conditions: Compound concentration 1000.0 nM
[27] = target: cAMP-dependent protein kinase catalytic subunit PRKX (Homo sapiens) (UniProt P51817); conditions: Compound concentration 1000.0 nM
cAMP-dependent protein kinase catalytic subunit PRKX (Homo sapiens), sequence (P51817 whole entry): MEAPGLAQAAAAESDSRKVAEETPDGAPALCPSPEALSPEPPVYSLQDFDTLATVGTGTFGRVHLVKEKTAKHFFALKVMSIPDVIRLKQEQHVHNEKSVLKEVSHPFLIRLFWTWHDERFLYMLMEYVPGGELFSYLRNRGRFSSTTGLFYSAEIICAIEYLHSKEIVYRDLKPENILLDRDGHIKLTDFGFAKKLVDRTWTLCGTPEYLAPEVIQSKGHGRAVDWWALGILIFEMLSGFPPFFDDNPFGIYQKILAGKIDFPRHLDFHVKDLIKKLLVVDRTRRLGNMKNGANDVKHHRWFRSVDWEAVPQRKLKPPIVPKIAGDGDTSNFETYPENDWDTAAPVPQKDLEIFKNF

[28] = target: Serine/threonine-protein kinase RIO3 (Homo sapiens) (UniProt O14730); conditions: Compound concentration 1000.0 nM
[29] = target: Receptor-interacting serine/threonine-protein kinase 2 (Homo sapiens) (UniProt O43353); conditions: Compound concentration 1000.0 nM
[30] = target: Rho-associated protein kinase 1 (Homo sapiens) (UniProt Q13464); conditions: Compound concentration 1000.0 nM
[31] = target: Ribosomal protein S6 kinase beta-1 (Homo sapiens) (UniProt P23443); conditions: Compound concentration 1000.0 nM
[32] = target: Serine/threonine-protein kinase SBK1 (Homo sapiens) (UniProt Q52WX2); conditions: Compound concentration 1000.0 nM
[33] = target: Serine/threonine-protein kinase SIK1 (Homo sapiens) (UniProt P57059); conditions: Compound concentration 1000.0 nM
Serine/threonine-protein kinase SIK1 (Homo sapiens), sequence (P57059 whole entry): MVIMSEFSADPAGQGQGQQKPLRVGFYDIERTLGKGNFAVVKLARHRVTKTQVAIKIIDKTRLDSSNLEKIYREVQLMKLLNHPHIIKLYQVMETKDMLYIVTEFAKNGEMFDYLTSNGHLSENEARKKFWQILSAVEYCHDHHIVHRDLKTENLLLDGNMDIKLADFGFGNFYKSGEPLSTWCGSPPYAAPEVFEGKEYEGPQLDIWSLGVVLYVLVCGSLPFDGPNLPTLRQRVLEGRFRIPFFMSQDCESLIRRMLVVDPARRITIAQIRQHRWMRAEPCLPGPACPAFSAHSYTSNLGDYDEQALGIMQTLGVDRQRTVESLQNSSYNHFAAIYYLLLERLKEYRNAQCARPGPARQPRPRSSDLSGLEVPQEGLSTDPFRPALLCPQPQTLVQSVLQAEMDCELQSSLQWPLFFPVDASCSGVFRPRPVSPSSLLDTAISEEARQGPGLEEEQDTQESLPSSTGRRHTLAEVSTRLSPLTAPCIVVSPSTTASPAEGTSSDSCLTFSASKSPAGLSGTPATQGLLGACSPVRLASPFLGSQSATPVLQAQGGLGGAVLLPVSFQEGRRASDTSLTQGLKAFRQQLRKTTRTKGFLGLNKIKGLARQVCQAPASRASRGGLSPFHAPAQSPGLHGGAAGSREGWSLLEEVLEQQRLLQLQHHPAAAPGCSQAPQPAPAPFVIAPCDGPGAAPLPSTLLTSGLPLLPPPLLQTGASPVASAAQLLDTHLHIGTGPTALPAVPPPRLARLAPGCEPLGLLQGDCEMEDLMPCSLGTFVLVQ

[34] = target: Angiopoietin-1 receptor (Homo sapiens) (UniProt Q02763); conditions: Compound concentration 1000.0 nM
[35] = target: GABA-A receptor; anion channel (Rattus norvegicus) (UniProt O09028+P15431+P18506+P18508+P19969+P20236+P23574+P23576+P28471+P28473+P30191+P62813+P63079+P63138+Q91ZM7+Q9ES14); conditions: Compound concentration 10.0 uM
[36] = target: Histamine H4 receptor (Homo sapiens) (UniProt Q9H3N8); conditions: Compound concentration 10.0 uM

Row | SMILES | IC50 [1] | % Inhibition of Control Values (Mean n=2) [2] | % Inhibition of Control Specific Binding (Mean n=2) [3] | % Inhibition of Control Specific Binding (Mean n=2) [4] | % Inhibition of Control Specific Binding (Mean n=2) [5] | % Inhibition of Control Specific Binding (Mean n=2) [6] | % Inhibition of Control Specific Binding (Mean n=2) [7] | residual activity [8] | residual activity [9] | residual activity [10] | residual activity [11] | residual activity [12] | residual activity [13] | residual activity [14] | residual activity [15] | residual activity [16] | residual activity [17] | residual activity [18] | residual activity [19] | residual activity [20] | further results
1 | O=C(NS(=O)(=O)c1ccc(NCC2CCOCC2)c([N+](=O)[O-])c1)c1ccc(N2CCN(Cc3ccc(C(F)(F)F)cc3-c3ccc(Cl)cc3)CC2)cc1Oc1cnc2[nH]ccc2c1 [A-1210227] | 296 nM (not active) | 78.1% | 13.6% | -7.6% | -0.2% | 2.8% | 24% | 100% | 86% | 93% | 74% | 97% | 85% | 100% | 100% | 84% | 100% | 88% | 82% | 100% | residual activity [21]: 96%; residual activity [22]: 85%; residual activity [23]: 67%; residual activity [24]: 90%; residual activity [25]: 100%; residual activity [26]: 100%; residual activity [27]: 100%; residual activity [28]: 98%; residual activity [29]: 100%; residual activity [30]: 100%; residual activity [31]: 81%; residual activity [32]: 100%; residual activity [33]: 90%; residual activity [34]: 80%; inhibition [35]: 14.5%; inhibition [36]: -2.4%
2 | CO[C@H]1CC[C@H](CNc2ccc(S(=O)(=O)NC(=O)c3ccc(N4CCN(CC5=C(c6ccc(Cl)cc6)CC(C)(C)CC5)CC4)cc3Oc3cnc4[nH]ccc4c3)cc2[N+](=O)[O-])CC1 [A-1211212] | 1.4 nM (active) | 14.2% | 9.1% | -3.3% | -7.2% | 12.9% | 17.3% | 100% | 71% | 91% | 72% | 98% | 88% | 89% | 100% | 100% | 78% | 100% | 77% | 100% | residual activity [21]: 56%; residual activity [22]: 66%; residual activity [23]: 61%; residual activity [24]: 86%; residual activity [25]: 100%; residual activity [26]: 90%; residual activity [27]: 100%; residual activity [28]: 100%; residual activity [29]: 85%; residual activity [30]: 70%; residual activity [31]: 86%; residual activity [32]: 100%; residual activity [33]: 90%; residual activity [34]: 69%; inhibition [35]: 19%; inhibition [36]: 4.94%
